Source: patent publication US8759031B2, “Type I polyketide synthase extender units” (priority 2007, dated 2014)
Like-named read-outs stand apart in the source and are kept apart here.

Experiments:
ZmaJ [1] = target: T1, ZmaJ (Bacillus cereus, UniProt Q7BQ71)
Description: ATP-PPi exchange assays were performed as previously described (Thomas et al., 2002, Chem. Biol. 9: 171-184). Reactions for amino acid specificity contained 70 nM ZmaJ and 1 mM of the following amino acids: L-Ser, L-2,3-diaminopropionate, L-Thr, Gly, and L-Cys. To determine the kinetic parameters of ZmaJ activation of L-Ser, 100 μL reactions containing 70 nM ZmaJ, 3.5 mM ATP, and varying concentrations of L-Ser (0.35 to 10 mM), in triplicate, were incubated for 10 min prior to stopping the reactions.

N[C@@H](CO)C(=O)O = test: purified protein, by the assay type; settings: other: 70 nM ZmaJ, 3.5 mM ATP, L-Ser 0.35 to 10 mM, 10 min, triplicate
Description: ZmaJ used in these assays was purified by an additional anion exchange chromatography step, which had no effect on seryl-ZmaH formation. […] Reactions for amino acid specificity contained 70 nM ZmaJ and 1 mM of the following amino acids: L-Ser, L-2,3-diaminopropionate, L-Thr, Gly, and L-Cys. To determine the kinetic parameters of ZmaJ activation of L-Ser, 100 μL reactions containing 70 nM ZmaJ, 3.5 mM ATP, and varying concentrations of L-Ser (0.35 to 10 mM), in triplicate, were incubated for 10 min prior to stopping the reactions. The reactions were in the linear range for enzyme concentration and less than 10% substrate-to-product conversion.

ZmaN = test: Formation of glyceryl-ZmaD (ZmaN-catalyzed modification of holo-ACP, HPLC analysis); format: biochemical, Bacillus cereus; settings: 50 μM 3-PG, ATP
ZmaN, sequence (as listed by the source, one chain of several): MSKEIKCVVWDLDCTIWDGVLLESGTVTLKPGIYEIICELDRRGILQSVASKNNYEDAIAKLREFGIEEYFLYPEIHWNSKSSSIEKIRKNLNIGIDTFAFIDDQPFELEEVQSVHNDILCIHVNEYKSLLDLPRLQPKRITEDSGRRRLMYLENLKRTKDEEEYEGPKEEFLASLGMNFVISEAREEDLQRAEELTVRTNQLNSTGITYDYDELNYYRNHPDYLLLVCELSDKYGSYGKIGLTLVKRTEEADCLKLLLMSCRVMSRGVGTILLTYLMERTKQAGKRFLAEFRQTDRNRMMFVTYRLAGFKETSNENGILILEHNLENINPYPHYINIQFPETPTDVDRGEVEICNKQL
Description: Control reactions were run without ZmaN, ATP, or with 2 U of 3-PGPK (Sigma). A time course comparing reactions with and without 3-PGPK contained 50 μM 3-PG, and the reactions were run for 0.5, 2.0, 5.0, and 10 min.
Reactions containing glyceraldehyde-3-phosphate (150 μl final volume) contained: 12.5 μM holo-ZmaD, 75 mM Tris pH 7.5, 10 mM MgCl2, 1 mM TCEP, 100 mM NaCl, 500 μM CoA, 1 μM Sfp, 250 μM DL-glyceraldehyde-3-phosphate (Sigma), 1 U GAPDH (Sigma), and 1 μM ZmaN were run for 40 min at 22° C. Control reactions without GAPDH, DL-glyceraldehyde-3-phosphate, Sfp, or ZmaN were run, as well as control reactions in which holo-ZmaH replaced holo-ZmaD.

ZmaJ [2] = target: T1, ZmaJ; settings: 10 μM holo-ZmaD replaced holo-ZmaH; L-serine, ATP
Description: Reaction mixtures (130 or 260 μl) contained: 10 μM holo-ZmaH, 58 mM Tris pH 7.5, 8 mM MgCl2, 0.8 mM TCEP, 385 μM CoA, 0.8 μM Sfp, 250 μM L-serine, 5 mM ATP, and 1 μM ZmaJ. The reaction mixtures were incubated at 22° C. for 1 hour. To test whether seryl-ZmaD could be formed, 10 μM holo-ZmaD replaced the 10 μM holo-ZmaH in a 130 μL reaction mixture.
In this experiment, 100-200 μl of apo- or holo-ZmaH or 130-200 μl of aminoacylated ZmaH reaction products was injected, and products were separated using the same method as above.

T1 sequence (Q7BQ71 whole entry): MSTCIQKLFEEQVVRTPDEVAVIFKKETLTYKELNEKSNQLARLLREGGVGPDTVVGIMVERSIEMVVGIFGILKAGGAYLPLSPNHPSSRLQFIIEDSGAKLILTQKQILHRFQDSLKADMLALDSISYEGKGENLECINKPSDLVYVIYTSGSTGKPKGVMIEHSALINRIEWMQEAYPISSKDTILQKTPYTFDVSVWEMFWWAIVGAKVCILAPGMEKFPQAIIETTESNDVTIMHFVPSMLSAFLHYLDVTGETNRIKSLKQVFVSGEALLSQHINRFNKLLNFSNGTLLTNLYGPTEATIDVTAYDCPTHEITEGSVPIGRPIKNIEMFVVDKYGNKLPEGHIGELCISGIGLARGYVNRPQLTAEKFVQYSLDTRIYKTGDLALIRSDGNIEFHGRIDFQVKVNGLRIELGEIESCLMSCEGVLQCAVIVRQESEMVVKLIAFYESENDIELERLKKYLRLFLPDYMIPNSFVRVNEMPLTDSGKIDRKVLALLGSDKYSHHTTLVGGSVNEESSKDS

N[C@@H](CS)C(=O)O [L-Cys]
amino acid substrate specificity of ZmaJ (activation) (ZmaJ [1]; 70 nM ZmaJ, 1 mM amino acid): activated only L-Ser

N[C@@H](CO)C(=O)O [L-Ser, L-serine]
amino acid substrate specificity of ZmaJ (activation) (ZmaJ [1]; 70 nM ZmaJ, 1 mM amino acid): activated only L-Ser

ZmaJ (Bacillus cereus)
Km (N[C@@H](CO)C(=O)O): 1800 ± 200 µM | kcat (N[C@@H](CO)C(=O)O): 0.7 ± 0.033 s⁻¹

C[C@@H](O)[C@H](N)C(=O)O [L-Thr]
amino acid substrate specificity of ZmaJ (activation) (ZmaJ [1]; 70 nM ZmaJ, 1 mM amino acid): activated only L-Ser

L-2,3-diaminopropionate
amino acid substrate specificity of ZmaJ (activation) (ZmaJ [1]; 70 nM ZmaJ, 1 mM amino acid): activated only L-Ser

NCC(=O)O [Gly]
amino acid substrate specificity of ZmaJ (activation) (ZmaJ [1]): activated only L-Ser

B1: holo-ZmaD: acyl carrier protein ZmaD (SEQ ID NO:2) phosphopantetheinylated in vitro by Sfp (protein, listed as Bacillus cereus)
chain: MDNHEKIRQYIKKNLIIFNAEETIVANDENIFEKGYVNSLFAMQMLNFIETEFDIVVDNDELDIINFSTINNMVDLINKKKNGNFTV
modifications: phosphopantetheinylated
rate of holo-ZmaD modification (ZmaN; with 3-PGPK): 1.44 nmol/min | rate of holo-ZmaD modification (ZmaN; without 3-PGPK): 0.08 nmol/min | aminoacylation by ZmaJ (seryl-ACP formation) (ZmaJ [2]): not able to aminoacylate
